Where a name gives a salt, the structure may show the parent alone. Read-outs that look alike come from different tables or passages of the source.
Columns and labels:
[1] = cited from earlier work
[2] = Physicochemical properties of doxycycline forms
[3] = In vitro dissolution/release profile, USP <711> Apparatus 1 (baskets); format: physicochemical
Description: For the purposes of in vitro testing, a release or dissolution profile may be determined at pH 1.2 using a 0.06 N hydrochloric acid solution, at pH 4.5 using a phosphate buffer using USP <711> test conditions, and at pH 5.0 using a buffer using USP <711> test conditions. Such test conditions can be carried out according to USP <711> dissolution conditions using Apparatus 1 (baskets) in 900 mL of media with stirring at 50 RPM. The in vitro release of the pellets was tested using USP XXIV 2000—Apparatus 1 (baskets). See, e.g., Riaz Uddin, Nadia Saffoon, and Kumar Bishwajit Sutradhar, “Dissolution and Dissolution Apparatus: A Review,” Int. J. Cur. Biomed. Phar. Res., 2011, Vol. 1(4), pgs. 201-207. The acid environment dissolution profile of pellet A and B's formulation can be seen in FIG. 1. The dissolution profile of pellet A and B formulations at elevated pH can be seen in FIG. 2.

[4] = cited from earlier work; remark: listed apart in the source
[5] = Population pharmacokinetic model of doxycycline plasma concentrations, pooled phase 1 data (Example 8); format: in vivo, human
Description: Pharmacokinetic data were available from eight phase 1 clinical trials conducted by Mayne Pharma International. These studies assessed doxycycline plasma concentrations following oral administration of either a 100 mg conventional release doxycycline hyclate capsule, a 75/100/150 or 200 mg Doryx® Delayed-Release tablet or a 120 mg Doryx MPC® Delayed-Release tablet in healthy subjects. For the remainder of the Specification's Example 8, conventional release doxycycline hyclate capsules will be referred to as Doryx capsules, the Doryx® Delayed-Release tablets will be referred to as Doryx tablets, and Doryx MPC® Delayed-Release tablets (formulation code MP336) will be referred to as Doryx MPC.
The available phase 1 clinical trials included six single dose two treatment period studies assessing the influence of formulation or the fed/fasted state on doxycycline concentrations. Two trials were multi-dose studies; with one a single treatment period study and the other a two treatment period study assessing doxycycline plasma concentrations following Doryx capsule or Doryx tablet administration. All studies were conducted in the United States. […] The design and dosing schedules are summarized in […].3. The available studies were assigned a local identifier during model development (10, 20, 30, 40, 50, 60, 70, and 80), as indicated in […].3, and will be referred to by these numbers for the remainder of the Specification.
Studies 10, 20, 30, 50, 60 and 80 were single-dose studies and plasma samples were acquired at nominal times approximate to 0, 0.25, 0.5, 1, 1.5, 2, 2.5, 3, 3.5, 4, 6, 8, 10, 12, 16, 24, 36, 48, 72 and 96 hours after the dose on day 1 of that period. Study 40 was a single treatment period multi-dose study, where participants were dosed 7 times at 24 hour intervals and plasma samples were collected at nominal times of 0, 0.25, 0.5, 1, 1.5, 2, 2.5, 3, 4, 6, 8, 10, 12, 16, 24, 144, 144.25, 144.5, 145, 145.5, 146, 146.5, 147, 148, 150, 152, 156, 160, 168, 180, 192, 216 and 240 hours after the dose on day 1. Study 70 was a two treatment period multi-dose study, where doses were given at 0, 72, 96, 120, 144 and 168 hours after the start of treatment, and plasma samples were collected at nominal times of 0, 0.25, 0.5, 1, 1.5, 2, 2.5, 3, 4, 6, 8, 10, 12, 16, 24, 36, 48, 72, 96, 120, 144, 168, 168.25, 168.5, 169, 169.5, 170, 170.5, 171, 172, 174, 176, 180, 184, 192, 204, 216 and 240 hours after the dose on day 1. Deviations between nominal sampling times and actual sample times were recorded, and the actual times were used during model development. Covariates describing fed status, formulation, sex, age, race, weight, body mass index (BMI), smoking status and study number were available for each individual.
Doxycycline plasma concentrations were measured using validated high performance liquid chromatographic methods, with the lower limits of quantification (LLOQ) of the assays indicated in […].3. All subjects with evaluable pharmacokinetic data were included in the analysis. All studies were conducted according to the International Conference of Harmonisation (ICH) guidelines for good clinical practice, the Declaration of Helsinki on the ethical conduct of medical research, and applicable regulatory requirements. Each subject signed and dated a written informed consent before study participation.
The base model was developed in a step-wise manner. Pharmacokinetic models were coded using the ADVAN5 subroutines of NONMEM. Linear kinetic models with 1, 2 and 3 compartments were evaluated, with absorption models including simple first-order absorption and “transit compartment” models with up to 5 absorption transit compartments assessed. The parameter KTR (transit absorption rate) was used to describe the first-order movement through these absorption compartments. The First Order Conditional Estimation (FOCE) method was used to fit models. […]

Plasmodium falciparum = conditions: cited from earlier work

SMILES: CC1c2cccc(O)c2C(=O)C2=C(O)[C@]3(O)C(=O)C(C(N)=O)=C(O)[C@@H](N(C)C)[C@@H]3[C@@H](O)[C@@H]21 (stereo partly drawn) [Doxycycline hyclate, [4S(4aR,5S,5aR,6R,12aS)]-4-(dimethylamino)-1,4,4a,5,5a,6,11,12a-octahydro-3,5,10,12,12a-pentahydroxy-6-methyl-1,11-deoxonapthtacene-2-carboxamide monohydrochloride, compound with ethyl alcohol (2:1), monohydrate]
- solubility [1]: soluble in water and in solutions of alkali hydroxides and carbonates

SMILES: C[C@H]1c2cccc(O)c2C(=O)C2=C(O)[C@]3(O)C(=O)C(C(N)=O)=C(O)[C@@H](N(C)C)[C@@H]3[C@@H](O)[C@@H]21 [doxycycline monohydrate salt]
- solubility ([2]; lower pH values (FIG. 5)): very soluble
- solubility ([2]; pH above 3 (FIG. 5)): not very soluble
- release rates overall ([3]; FIG. 5): low release rates overall
- release ([3]; acidic conditions (FIG. 5)): releases readily

SMILES: C[C@H]1c2cccc(O)c2C(=O)C2=C(O)[C@]3(O)C(=O)C(C(N)=O)=C(O)[C@@H](N(C)C)[C@@H]3[C@@H](O)[C@@H]21 [doxycycline, (4S,4aR,5S,5aR,6R,12aS)-4-(dimethylamino)-3,5,10,12,12a-pentahydroxy-6-methyl-1,11-dioxo-1,4,4a,5,5a,6,11,12a-octahydrotetracene-2-carboxamide]
- peak serum level ([4]; 200 mg dose, at 2 hours, normal adult volunteers): 2.6 µg/mL
- serum level ([4]; 200 mg dose, at 24 hours): 1450 ng/mL
- absorption after oral administration ([4]; in vivo, po): virtually completely absorbed
- half-life ([4]; in vivo): approximately 18 hours
- excretion by the kidney ([4]; normal function (creatinine clearance about 75 mL/min)): about 40 %/72 hours
- excretion by the kidney ([4]; severe renal insufficiency (creatinine clearance below 10 mL/min)): 1-5 %/72 hours
- CL, Clearance ([5]; final model parameter estimate): 4.63 L/h/70 kg FFM
- CLP1, Intercompartmental clearance ([5]; final model parameter estimate): 11.3 L/h/70 kg FFM
- KTR, Transit compartment rate constant ([5]; final model parameter estimate): 2 h⁻¹
- V, Central distribution volume ([5]; final model parameter estimate): 55.2 L/70 kg FFM
- VP1, Peripheral distribution volume ([5]; final model parameter estimate): 49.8 L/70 kg FFM
- FTLAG2, lag on KTR (absorption) for the fed status ([5]; final model, formulation non-specific): 0.203 h
- Fed-state decrease in relative bioavailability ([5]; human, plasma, oral, final model parameter estimate, read-out: COVFEDF, Effect of food on relative bioavailability): 10.5%
- female sex increase in clearance ([5]; in vivo): 14.4%
- fed status decrease in relative bioavailability (F) ([5]; irrespective of formulation): 10.5%
- activity against asexual erythrocytic forms (Plasmodium falciparum): active
- activity against gametocytes (Plasmodium falciparum): not against the gametocytes
- lipid solubility [1]: high degree of lipid solubility
